Inconclusive results and toxic doses are left out. Rule as the data show it: active = T/C of 150% or more; inactive = T/C below 125%.
System: L1210 leukemia ip in BDF1 mice, survival T/C
Assay: NCI In Vivo Anticancer Drug Screen. Data for tumor model L1210 Leukemia (intraperitoneal) in B6D2F1 (BDF1) mice
Conditions: endpoint: mean survival time, higher = longer survival
Procedure, shortened: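 Antitumor effect is assessed in tumor-bearing animals. Survival in the compound arm is compared with a vehicle-dosed control arm and expressed as their quotient.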

[1] = dose: 100.0 mg/kg/injection, schedule: Q01DX009 (ip), vehicle: Klucel (hydroxypropylcellulose) (HPC)
[2] = dose: 100.0 mg/kg/injection, schedule: Q04DX002 (ip), vehicle: Klucel (hydroxypropylcellulose) (HPC)
[3] = dose: 200.0 mg/kg/injection, schedule: Q01DX009 (ip), vehicle: Klucel (hydroxypropylcellulose) (HPC)
[4] = dose: 200.0 mg/kg/injection, schedule: Q04DX002 (ip), vehicle: Klucel (hydroxypropylcellulose) (HPC)
[5] = dose: 400.0 mg/kg/injection, schedule: Q01DX009 (ip), vehicle: Klucel (hydroxypropylcellulose) (HPC)
[6] = dose: 400.0 mg/kg/injection, schedule: Q04DX002 (ip), vehicle: Klucel (hydroxypropylcellulose) (HPC)

Measured: T/C

Cc1ccccc1NC(=O)Nc1ccc(S(N)(=O)=O)cc1
inactive: [1] 104 % of control | [2] 86 % of control | [3] 101 % of control | [4] 93 % of control | [5] 112 % of control | [6] 86 % of control

CCOC(=O)C(C=O)C(C(=O)OCC)C(OCC)OCC (stereo unspecified)
inactive: dose: 100.0 mg/kg/injection, schedule: Q04DX003 (ip), vehicle: saline with Tween-80 111 % of control | dose: 200.0 mg/kg/injection, schedule: Q04DX003 (ip), vehicle: saline with Tween-80 104 % of control | dose: 400.0 mg/kg/injection, schedule: Q04DX003 (ip), vehicle: saline with Tween-80 109 % of control

CC1=C2C(=CC(C)(C)[C@@H]2O)C(=O)[C@](C)(O)C12CC2
inactive: dose: 75.0 micrograms/kg/injection, schedule: Q01DX Z (ip), vehicle: saline 98 % of control | dose: 150.0 micrograms/kg/injection, schedule: Q01DX Z (ip), vehicle: saline 104 % of control | dose: 300.0 micrograms/kg/injection, schedule: Q01DX Z (ip), vehicle: saline 106 % of control | dose: 600.0 micrograms/kg/injection, schedule: Q01DX Z (ip), vehicle: saline 106 % of control

O=C(OCCCl)c1ccccc1
inactive: dose: 60.0 mg/kg/injection, schedule: Q01DX009 (ip), vehicle: Klucel (hydroxypropylcellulose) (HPC) 103 % of control | dose: 100.0 mg/kg/injection, schedule: Q01DX001 (ip), vehicle: Klucel (hydroxypropylcellulose) (HPC) 106 % of control | dose: 100.0 mg/kg/injection, schedule: Q04DX003 (ip), vehicle: Klucel (hydroxypropylcellulose) (HPC) 101 % of control | dose: 120.0 mg/kg/injection, schedule: Q01DX009 (ip), vehicle: Klucel (hydroxypropylcellulose) (HPC) 100 % of control | dose: 200.0 mg/kg/injection, schedule: Q01DX001 (ip), vehicle: Klucel (hydroxypropylcellulose) (HPC) 98 % of control | dose: 200.0 mg/kg/injection, schedule: Q04DX003 (ip), vehicle: Klucel (hydroxypropylcellulose) (HPC) 101 % of control | dose: 240.0 mg/kg/injection, schedule: Q01DX009 (ip), vehicle: Klucel (hydroxypropylcellulose) (HPC) 94 % of control | dose: 400.0 mg/kg/injection, schedule: Q01DX001 (ip), vehicle: Klucel (hydroxypropylcellulose) (HPC) 98 % of control | dose: 400.0 mg/kg/injection, schedule: Q04DX003 (ip), vehicle: Klucel (hydroxypropylcellulose) (HPC) 101 % of control

COC(=O)c1ccc(N=Nc2ncc(CC(NC(C)=O)C(=O)OC)[nH]2)cc1 (stereo unspecified)
inactive: dose: 100.0 mg/kg/injection, schedule: Q01DX001 (ip), vehicle: saline with Tween-80 93 % of control | dose: 200.0 mg/kg/injection, schedule: Q01DX001 (ip), vehicle: saline with Tween-80 96 % of control | dose: 400.0 mg/kg/injection, schedule: Q01DX001 (ip), vehicle: saline with Tween-80 100 % of control

OC(c1ccc(Cl)cc1)c1ccc(Cl)cc1
inactive: dose: 75.0 mg/kg/injection, schedule: Q01DX001 (ip), vehicle: acetone 97 % of control | dose: 150.0 mg/kg/injection, schedule: Q01DX001 (ip), vehicle: acetone 97 % of control | dose: 300.0 mg/kg/injection, schedule: Q01DX001 (ip), vehicle: acetone 94 % of control

COc1ccc2c(c1)CC(CN1CCC3(CC1)C(=O)N(C)CN3c1ccccc1)O2 (stereo unspecified)
inactive: dose: 75.0 mg/kg/injection, schedule: Q04DX003 (ip), vehicle: Klucel (hydroxypropylcellulose) (HPC) 101 % of control | dose: 150.0 mg/kg/injection, schedule: Q04DX003 (ip), vehicle: Klucel (hydroxypropylcellulose) (HPC) 107 % of control | dose: 300.0 mg/kg/injection, schedule: Q04DX003 (ip), vehicle: Klucel (hydroxypropylcellulose) (HPC) 95 % of control

CS(=O)(=O)OCCN(CCOS(C)(=O)=O)c1ccc([N+](=O)[O-])c(C(F)(F)F)c1
inactive: dose: 50.0 mg/kg/injection, schedule: Q01DX001 (ip), vehicle: saline 94 % of control | dose: 100.0 mg/kg/injection, schedule: Q01DX001 (ip), vehicle: saline 96 % of control | dose: 200.0 mg/kg/injection, schedule: Q01DX001 (ip), vehicle: saline 96 % of control | dose: 400.0 mg/kg/injection, schedule: Q01DX001 (ip), vehicle: saline 94 % of control

Cc1ccc(C(=O)OCc2ccccc2CN(C)C)cc1
inactive: [2] 94 % of control | [4] 94 % of control | [6] 102 % of control

OC(Cc1ccc2ccccc2n1)C(Cl)(Cl)Cl (stereo unspecified)
inactive: dose: 25.0 mg/kg/injection, schedule: Q01DX009 (ip), vehicle: saline with Tween-80 103 % of control | dose: 50.0 mg/kg/injection, schedule: Q01DX009 (ip), vehicle: saline with Tween-80 91 % of control | [1] 101 % of control | dose: 100.0 mg/kg/injection, schedule: Q01DX009 (ip), vehicle: saline with Tween-80 101 % of control | [3] 93 % of control | dose: 200.0 mg/kg/injection, schedule: Q01DX009 (ip), vehicle: saline with Tween-80 89 % of control | [5] 101 % of control | dose: 400.0 mg/kg/injection, schedule: Q01DX009 (ip), vehicle: saline with Tween-80 114 % of control

— PubChem BioAssay AID248 (DTP/NCI, 2004)
